Laboratory results taken from US10689327B2, “Prodrug amino acid derivative” (TAISHO PHARMACEUTICALS CO., LTD., priority 2016, dated 2020).

Experiment: Stability test in solution (pH 1.2 and pH 6.5)
Format: physicochemical
Details: 1 hour; for Compound's percent residue (%) pH 6.5: 20 mM phosphate buffer pH 6.5, 37° C.; for Compound's percent residue (%) pH 1.2: hydrochloric acid solution pH 1.2, 37° C.
Experimental: Test 2: Stability Test in Solution
A test to determine the stability of Inventive Compounds (I-A) or (I) in a hydrochloric acid solution (pH 1.2) and 20 mM phosphate buffer (pH 6.5) was conducted in accordance with the following method.
A compound was dissolved in a hydrochloric acid solution (pH 1.2) containing hydrochloric acid and sodium chloride or a 20 mM phosphate buffer (pH 6.5) containing disodium hydrogenphosphate, sodium dihydrogenphosphate and sodium chloride to prepare a solution with a concentration of about 50 ng/mL (near the saturated concentration when the compound was not dissolved). The solution was incubated at 37° C. for 1 hour and the compound's concentration before and after the incubation was quantified by high-performance liquid chromatography to calculate the percent residue of the compound. Compounds having low solubility were assessed as being not applicable.
The percent residues of representative compounds in the hydrochloric acid solution (pH 1.2) and the 20 mM phosphate buffer (pH 6.5) are shown in the following Table 2.

| Structure (SMILES) | Compound's percent residue (%) pH 6.5 [%] | Compound's percent residue (%) pH 1.2 [%] |
| --- | --- | --- |
| CC(OC(=O)O[C@@H]1C[C@@H]2CC[C@@]1(C)C2(C)C)OC(=O)[C@@]1(N)[C@H]2[C@@H](C[C@H]1OCc1ccc(F)cc1)[C@]2(F)C(=O)O (stereo partly drawn) [Example 17-B, (1R,2R,3R,5R,6R)-2-Amino-6-fluoro-3-[(4-fluorophenyl)methoxy]-2-({1-[({[(1S,2R,4S)-1,7,7-trimethylbicyclo[2.2.1]heptan-2-yl]oxy}carbonyl)oxy]ethoxy}carbonyl)bicyclo[3.1.0]hexane-6-carboxylic acid] | 100 | 106 |
| CC(C)[C@@H]1CC[C@@H](C)C[C@H]1OC(=O)O[C@@H](C)OC(=O)[C@@]1(N)[C@H]2[C@@H](C[C@H]1OCc1ccc(F)cc1)[C@]2(F)C(=O)O [Example 2, (1R,2R,3R,5R,6R)-2-Amino-6-fluoro-3-[(4-fluorophenyl)methoxy]-2-({(1S)-1-[({[(1R,2S,5R)-5-methyl-2-(propan-2-yl)cyclohexyl]oxy}carbonyl)oxy]ethoxy}carbonyl)bicyclo[3.1.0]hexane-6-carboxylic acid] | 104 | – |
| Cc1ccc(CO[C@@H]2C[C@@H]3[C@H]([C@]2(N)C(=O)O[C@@H](C)OC(=O)O[C@@H]2C[C@H](C)CC[C@H]2C(C)C)[C@@]3(F)C(=O)O)cc1 [Example 34, (1R,2R,3R,5R,6R)-2-amino-6-fluoro-3-[(4-methylphenyl)methoxy]-2-({(1R)-1-[({[(1R,2S,5R)-5-methyl-2-(propan-2-yl)cyclohexyl]oxy}carbonyl)oxy]ethoxy}carbonyl)bicyclo[3.1.0]hexane-6-carboxylic acid] | 94 | 100 |
| N[C@]1(C(=O)OCOC(=O)C2CCCCC2)[C@H]2[C@@H](C[C@H]1OCc1ccc(F)cc1)[C@]2(F)C(=O)O [Example 37, (1R,2R,3R,5R,6R)-2-amino-2-({[(cyclohexanecarbonyl)oxy]methoxy}carbonyl)-6-fluoro-3-[(4-fluorophenyl)methoxy]bicyclo[3.1.0]hexane-6-carboxylic acid] | 96 | 102 |
| CC(C)[C@@H]1CC[C@@H](C)C[C@H]1OC(=O)O[C@H](C)OC(=O)[C@@]1(N)[C@H]2[C@@H](C[C@H]1OCc1cccc(Cl)n1)[C@]2(F)C(=O)O [Example 33, (1R,2R,3R,5R,6R)-2-amino-3-[(6-chloropyridin-2-yl)methoxy]-6-fluoro-2-({(1R)-1-[({[(1R,2S,5R)-5-methyl-2-(propan-2-yl)cyclohexyl]oxy}carbonyl)oxy]ethoxy}carbonyl)bicyclo[3.1.0]hexane-6-carboxylic acid] | 97 | 96 |
| N[C@]1(C(=O)OCOC(=O)C23CC4CC(CC(C4)C2)C3)[C@H]2[C@@H](C[C@H]1OCc1ccc(F)cc1)[C@]2(F)C(=O)O [Example 7, (1R,2R,3R,5R,6R)-2-Amino-6-fluoro-3-[(4-fluorophenyl)methoxy]-2-({[(tricyclo[3.3.1.1^3,7]decane-1-carbonyl)oxy]methoxy}carbonyl)bicyclo[3.1.0]hexane-6-carboxylic acid] | 106 | 101 |
| CC(C)[C@@H]1CC[C@@H](C)C[C@H]1OC(=O)O[C@H](C)OC(=O)[C@@]1(N)[C@H]2[C@@H](C[C@H]1OCc1ccc(F)cc1)[C@]2(F)C(=O)O [Example 1, (1R,2R,3R,5R,6R)-2-amino-6-fluoro-3-[(4-fluorophenyl)methoxy]-2-({(1R)-1-[({[(1R,2S,5R)-5-methyl-2-(propan-2-yl)cyclohexyl]oxy}carbonyl)oxy]ethoxy}carbonyl)bicyclo[3.1.0]hexane-6-carboxylic acid] | 103 | 109 |
| CC(OC(=O)O[C@H]1C[C@H]2CC[C@]1(C)C2(C)C)OC(=O)[C@@]1(N)[C@H]2[C@@H](C[C@H]1OCc1ccc(F)cc1)[C@]2(F)C(=O)O (stereo partly drawn) [Example 19-A, (1R,2R,3R,5R,6R)-2-Amino-6-fluoro-3-[(4-fluorophenyl)methoxy]-2-({1-[({[(1R,2S,4R)-1,7,7-trimethylbicyclo[2.2.1]heptan-2-yl]oxy}carbonyl)oxy]ethoxy}carbonyl)bicyclo[3.1.0]hexane-6-carboxylic acid] | 99 | 98 |
| N[C@]1(C(=O)OCOC(=O)c2ccccc2)[C@H]2[C@@H](C[C@H]1OCc1ccc(F)cc1)[C@]2(F)C(=O)O [Example 36, (1R,2R,3R,5R,6R)-2-amino-2-{[(benzoyloxy)methoxy]carbonyl}-6-fluoro-3-[(4-fluorophenyl)methoxy]bicyclo[3.1.0]hexane-6-carboxylic acid] | 99 | 100 |
| CCCO[C@@H]1C[C@@H]2[C@H]([C@]1(N)C(=O)OC(C)OC(=O)O[C@H]1C[C@H]3CC[C@]1(C)C3(C)C)[C@@]2(F)C(=O)O (stereo partly drawn) [Example 20, (1R,2R,3R,5R,6R)-2-Amino-6-fluoro-3-propoxy-2-({1-[({[(1R,2S,4R)-1,7,7-trimethylbicyclo[2.2.1]heptan-2-yl]oxy}carbonyl)oxy]ethoxy}carbonyl)bicyclo[3.1.0]hexane-6-carboxylic acid] | 100 | 106 |
| CC(OC(=O)O[C@H]1C[C@@H](C)CC[C@@H]1C(C)C)OC(=O)[C@@]1(N)[C@H]2[C@@H](C[C@H]1OCc1ccc(F)cc1)[C@]2(F)C(=O)O (stereo partly drawn) [Example 16-B, (1R,2R,3R,5R,6R)-2-Amino-6-fluoro-3-[(4-fluorophenyl)methoxy]-2-({1-[({[(1S,2R,5S)-5-methyl-2-(propan-2-yl)cyclohexyl]oxy}carbonyl)oxy]ethoxy}carbonyl)bicyclo[3.1.0]hexane-6-carboxylic acid] | 93 | 101 |
| C[C@@H](OC(=O)C12CC3CC(CC(C3)C1)C2)OC(=O)[C@@]1(N)[C@H]2[C@@H](C[C@H]1OCc1ccc(F)cc1)[C@@H]2C(=O)O [Example 38, (1S,2R,3R,5R,6S)-2-amino-3-[(4-fluorophenyl)methoxy]-2-({(1S)-1-[(tricyclo[3.3.1.1^3,7]decane-1-carbonyl)oxy]ethoxy}carbonyl)bicyclo[3.1.0]hexane-6-carboxylic acid] | 94 | 97 |
| CCCO[C@@H]1C[C@@H]2[C@H]([C@]1(N)C(=O)OC(C)OC(=O)O[C@H]1C[C@@H](C)CC[C@@H]1C(C)C)[C@@]2(F)C(=O)O (stereo partly drawn) [Example 15-A, (1R,2R,3R,5R,6R)-2-Amino-6-fluoro-2-({1-[({[(1S,2R,5S)-5-methyl-2-(propan-2-yl)cyclohexyl]oxy}carbonyl)oxy]ethoxy}carbonyl)-3-propoxybicyclo[3.1.0]hexane-6-carboxylic acid] | 104 | 104 |
| CC(OC(=O)O[C@H]1C(C)(C)[C@H]2CC[C@]1(C)C2)OC(=O)[C@@]1(N)[C@H]2[C@@H](C[C@H]1OCc1ccc(F)cc1)[C@]2(F)C(=O)O (stereo partly drawn) [Example 21, (1R,2R,3R,5R,6R)-2-Amino-6-fluoro-3-[(4-fluorophenyl)methoxy]-2-({1-[({[(1R,2R,4S)-1,3,3-trimethylbicyclo[2.2.1]heptan-2-yl]oxy}carbonyl)oxy]ethoxy}carbonyl)bicyclo[3.1.0]hexane-6-carboxylic acid] | 98 | 101 |
| COc1cc([C@@H](C)O[C@@H]2C[C@@H]3[C@H]([C@]2(N)C(=O)O[C@@H](C)OC(=O)C24CC5CC(CC(C5)C2)C4)[C@@]3(F)C(=O)O)ccc1F [Example 25, (1R,2R,3R,5R,6R)-2-amino-6-fluoro-3-[(1R)-1-(4-fluoro-3-methoxyphenyl)ethoxy]-2-({(1S)-1-[(tricyclo[3.3.1.1^3,7]decane-1-carbonyl)oxy]ethoxy}carbonyl)bicyclo[3.1.0]hexane-6-carboxylic acid] | 99 | 98 |
| C[C@H](OC(=O)C12CC3CC(CC(C3)C1)C2)OC(=O)[C@@]1(N)[C@H]2[C@@H](C[C@H]1OCc1ccc(F)cc1)[C@]2(F)C(=O)O [Example 3, (1R,2R,3R,5R,6R)-2-Amino-6-fluoro-3-[(4-fluorophenyl)methoxy]-2-({(1R)-1-[(tricyclo[3.3.1.1^3,7]decane-1-carbonyl)oxy]ethoxy}carbonyl)bicyclo[3.1.0]hexane-6-carboxylic acid] | – | 93 |
| C[C@@H](OC(=O)C12CC3CC(CC(C3)C1)C2)OC(=O)[C@@]1(N)[C@H]2[C@@H](C[C@H]1OCc1cccc(F)c1)[C@]2(F)C(=O)O [Example 23, (1R,2R,3R,5R,6R)-2-amino-6-fluoro-3-[(3-fluorophenyl)methoxy]-2-({(1S)-1-[(tricyclo[3.3.1.1^3,7]decane-1-carbonyl)oxy]ethoxy}carbonyl)bicyclo[3.1.0]hexane-6-carboxylic acid] | 100 | 101 |
| N[C@]1(C(=O)OCOC(=O)C23CC4CC(CC(C4)C2)C3)[C@H]2[C@@H](C[C@H]1OCc1ccc(F)c(F)c1)[C@]2(F)C(=O)O [Example 12, (1R,2R,3R,5R,6R)-2-Amino-3-[(3,4-difluorophenyl)methoxy]-6-fluoro-2-({[(tricyclo[3.3.1.1^3,7]decane-1-carbonyl)oxy]methoxy}carbonyl)bicyclo[3.1.0]hexane-6-carboxylic acid] | 102 | 101 |
